Data published in ChEMBL document CHEMBL1157938, “Cytotoxicity and inhibition of DNA topoisomerase I of polyhydroxylated triterpenoids and triterpenoid glycosides” (Bioorg Med Chem Lett, 2010).
Each block holds one molecule with its values, some of them ahead of it. Calls of active or inactive are those of the source. The rule behind the calls is not given here.

What was measured:
DNA topoisomerase 1 = molecular target: T1, DNA topoisomerase 1 (Homo sapiens, UniProt P11387); assay: Inhibition of human DNA topoisomerase 1-mediated relaxation of supercoiled DNA by gel electrophoresis
T1 sequence (P11387 whole entry): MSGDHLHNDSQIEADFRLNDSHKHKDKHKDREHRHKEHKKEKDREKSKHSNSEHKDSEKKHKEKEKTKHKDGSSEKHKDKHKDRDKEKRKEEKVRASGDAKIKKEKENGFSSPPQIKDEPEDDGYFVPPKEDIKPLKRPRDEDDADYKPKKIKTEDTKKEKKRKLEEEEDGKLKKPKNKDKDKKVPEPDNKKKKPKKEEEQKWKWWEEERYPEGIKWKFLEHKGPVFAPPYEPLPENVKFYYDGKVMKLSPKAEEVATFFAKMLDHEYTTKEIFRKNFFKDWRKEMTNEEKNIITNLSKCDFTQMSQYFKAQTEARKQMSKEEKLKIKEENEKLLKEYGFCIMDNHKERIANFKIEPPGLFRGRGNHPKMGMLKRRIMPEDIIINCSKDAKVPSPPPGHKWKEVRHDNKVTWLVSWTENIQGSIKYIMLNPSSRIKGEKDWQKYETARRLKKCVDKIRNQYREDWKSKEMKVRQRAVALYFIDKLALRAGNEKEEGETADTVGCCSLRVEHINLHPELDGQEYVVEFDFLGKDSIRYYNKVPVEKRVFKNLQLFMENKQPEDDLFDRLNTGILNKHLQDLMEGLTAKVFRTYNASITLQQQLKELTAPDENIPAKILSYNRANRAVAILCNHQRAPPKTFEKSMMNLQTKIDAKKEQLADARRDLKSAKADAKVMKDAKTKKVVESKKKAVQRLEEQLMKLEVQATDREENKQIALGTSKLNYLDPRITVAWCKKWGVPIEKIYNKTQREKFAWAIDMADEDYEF

[1] = molecular target: DNA topoisomerase 2-alpha (Homo sapiens, UniProt P11388); assay: Inhibition of human DNA topoisomerase 2-mediated relaxation of supercoiled DNA by gel electrophoresis
A549 [2] = assay: Cytotoxicity against human A549 cells after 48 hrs by WST8 assay; format: functional; details: A549, 48 h
PC-3 [3] = assay: Cytotoxicity against human PC3 cells after 48 hrs by WST8 assay; format: functional; details: PC-3, 48 h
HL-60 [4] = assay: Cytotoxicity against human HL60 cells after 48 hrs by WST8 assay; format: functional; details: HL-60, 48 h
PANC-1 [5] = assay: Cytotoxicity against human PANC1 cells after 48 hrs by WST8 assay; format: functional; details: PANC-1, 48 h
[6] = Cytotoxicity against human MRC5 cells after 48 hrs by WST8 assay; format: cell-based
HL-60 [7] = assay: Cytotoxicity against human HL60 cells at 25 uM after 48 hrs by WST8 assay; format: functional, cell-based
A549 [8] = assay: Cytotoxicity against human A549 cells at 25 uM after 48 hrs by WST8 assay; format: functional, cell-based
PC-3 [9] = assay: Cytotoxicity against human PC3 cells at 25 uM after 48 hrs by WST8 assay; format: functional, cell-based
PANC-1 [10] = assay: Cytotoxicity against human PANC1 cells at 25 uM after 48 hrs by WST8 assay; format: functional, cell-based
MRC5 = assay: Cytotoxicity against human MRC5 cells at 25 uM after 48 hrs by WST8 assay; format: cell-based; details: mrc5, 48 h

DNA topoisomerase 2-alpha, sequence (P11388 whole entry): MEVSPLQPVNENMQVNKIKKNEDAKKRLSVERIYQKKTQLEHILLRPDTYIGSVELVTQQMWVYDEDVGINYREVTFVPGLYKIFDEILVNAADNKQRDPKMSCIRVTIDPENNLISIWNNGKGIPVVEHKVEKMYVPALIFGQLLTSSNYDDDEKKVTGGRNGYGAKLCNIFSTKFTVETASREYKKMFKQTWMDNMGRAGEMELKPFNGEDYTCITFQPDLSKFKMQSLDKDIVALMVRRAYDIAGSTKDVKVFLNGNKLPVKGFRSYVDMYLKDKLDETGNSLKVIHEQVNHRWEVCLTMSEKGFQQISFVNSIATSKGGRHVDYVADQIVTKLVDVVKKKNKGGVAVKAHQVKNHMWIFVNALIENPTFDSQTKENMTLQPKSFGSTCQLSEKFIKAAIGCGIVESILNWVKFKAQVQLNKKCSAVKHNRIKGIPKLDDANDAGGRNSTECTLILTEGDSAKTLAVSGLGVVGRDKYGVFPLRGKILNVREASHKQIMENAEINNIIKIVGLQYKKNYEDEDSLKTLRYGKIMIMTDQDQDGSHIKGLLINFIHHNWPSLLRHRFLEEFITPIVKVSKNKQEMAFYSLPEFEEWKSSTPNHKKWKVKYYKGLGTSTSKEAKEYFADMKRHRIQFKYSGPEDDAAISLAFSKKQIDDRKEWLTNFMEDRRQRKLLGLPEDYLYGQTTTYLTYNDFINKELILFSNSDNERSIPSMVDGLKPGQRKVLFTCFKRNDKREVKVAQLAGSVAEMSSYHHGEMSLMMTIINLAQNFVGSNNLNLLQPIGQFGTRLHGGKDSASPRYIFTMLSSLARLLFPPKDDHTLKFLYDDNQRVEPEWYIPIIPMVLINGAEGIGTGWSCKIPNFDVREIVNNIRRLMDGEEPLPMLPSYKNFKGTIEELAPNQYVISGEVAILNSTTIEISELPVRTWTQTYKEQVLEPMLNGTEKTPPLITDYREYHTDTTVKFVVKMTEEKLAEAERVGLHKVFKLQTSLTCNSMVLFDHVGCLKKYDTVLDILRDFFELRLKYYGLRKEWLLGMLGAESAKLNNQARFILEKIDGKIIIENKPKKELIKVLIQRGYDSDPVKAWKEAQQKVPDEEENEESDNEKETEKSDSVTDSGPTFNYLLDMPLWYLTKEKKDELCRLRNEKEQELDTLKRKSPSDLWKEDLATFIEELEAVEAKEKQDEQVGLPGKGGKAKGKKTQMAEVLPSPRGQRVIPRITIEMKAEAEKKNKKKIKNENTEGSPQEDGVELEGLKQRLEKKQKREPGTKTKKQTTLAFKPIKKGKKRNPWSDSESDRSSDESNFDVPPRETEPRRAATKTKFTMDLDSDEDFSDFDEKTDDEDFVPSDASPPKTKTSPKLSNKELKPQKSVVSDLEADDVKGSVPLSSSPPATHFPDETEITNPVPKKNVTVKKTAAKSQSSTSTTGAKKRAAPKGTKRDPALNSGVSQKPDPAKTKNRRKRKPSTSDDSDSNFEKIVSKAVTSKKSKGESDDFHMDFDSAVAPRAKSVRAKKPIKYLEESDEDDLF

SMILES: C/C=C(/C)C(=O)O[C@H]1[C@H](OC(C)=O)[C@]2(CO)[C@H](O)C[C@]3(C)C(=CC[C@@H]4[C@@]5(C)CC[C@H](O[C@@H]6O[C@H](C(=O)O)[C@@H](O)[C@H](O[C@@H]7O[C@@H](CO)[C@H](O)[C@H]7O)[C@H]6O[C@@H]6O[C@H](CO)[C@@H](O)[C@H](O)[C@H]6O)[C@](C)(CO)[C@@H]5CC[C@]43C)[C@@H]2CC1(C)C [AESCULIOSIDE III]
IC50 (DNA topoisomerase 1): > 250 µM
IC50 [1]: > 250 µM
GI50 (A549 [2]): 20.1 µM
GI50 (PC-3 [3]): 9.54 µM
GI50 (HL-60 [4]): 8.37 µM
GI50 (PANC-1 [5]): 14.8 µM
GI50 at 48 h [6]: 12.8 µM

IC50 (DNA topoisomerase 1): > 250 µM
IC50 [1]: > 250 µM
SMILES: C[C@H]1[C@H](C)CC[C@]2(C)CC[C@]3(C)C(=CC[C@@H]4[C@@]5(C)CC[C@H](O)C(C)(C)[C@@H]5CC[C@]43C)[C@H]12
GI50 (A549 [2]): 10.5 µM
GI50 (PC-3 [3]): 7.66 µM
growth inhibition (GI) (HL-60 [7]): inactive
GI50 (PANC-1 [5]): 12.8 µM

IC50 (DNA topoisomerase 1): > 250 µM
IC50 [1]: > 250 µM
SMILES: C/C=C(/C)C(=O)O[C@H]1[C@H](O)C(C)(C)C[C@H]2C3=CC[C@@H]4[C@@]5(C)CC[C@H](O[C@@H]6O[C@H](C(=O)O)[C@@H](O)[C@H](O[C@@H]7OC[C@@H](O)[C@H](O)[C@H]7O)[C@H]6O[C@@H]6O[C@H](CO)[C@@H](O)[C@H](O)[C@H]6O)C(C)(C)[C@@H]5CC[C@@]4(C)[C@]3(C)[C@@H](O)[C@@H](O)[C@]21CO [ERYNGIOSIDE E]
growth inhibition (GI) (A549 [8]): inactive
growth inhibition (GI) (PC-3 [9]): inactive
growth inhibition (GI) (HL-60 [7]): inactive
growth inhibition (GI) (PANC-1 [10]): inactive
growth inhibition (GI) (MRC5): Not Active

SMILES: C/C=C(/C)C(=O)O[C@H]1[C@H](OC(C)=O)[C@]2(CO)[C@H](O)[C@H](O)[C@]3(C)C(=CC[C@@H]4[C@@]5(C)CC[C@H](O[C@@H]6O[C@H](C(=O)O)[C@@H](O)[C@H](O[C@@H]7O[C@@H](CO)[C@H](O)[C@H]7O)[C@H]6O[C@@H]6O[C@H](CO)[C@H](O)[C@H](O)[C@H]6O)C(C)(C)[C@@H]5CC[C@]43C)[C@@H]2CC1(C)C [AESCULIOSIDE IIG]
IC50 (DNA topoisomerase 1): > 250 µM
IC50 [1]: > 250 µM
growth inhibition (GI) (A549 [8]): inactive
growth inhibition (GI) (PC-3 [9]): inactive
growth inhibition (GI) (HL-60 [7]): inactive
growth inhibition (GI) (PANC-1 [10]): inactive
growth inhibition (GI) (MRC5): Not Active

SMILES: C/C=C(\C)C(=O)O[C@H]1[C@H](OC(C)=O)[C@]2(CO)[C@H](O)[C@H](O)[C@]3(C)C(=CC[C@@H]4[C@@]5(C)CC[C@H](O[C@@H]6O[C@H](C(=O)O)[C@@H](O)[C@H](O[C@@H]7O[C@@H](CO)[C@H](O)[C@H]7O)[C@H]6O[C@@H]6O[C@H](CO)[C@H](O)[C@H](O)[C@H]6O)C(C)(C)[C@@H]5CC[C@]43C)[C@@H]2CC1(C)C [AESCULIOSIDE IIF]
IC50 (DNA topoisomerase 1): > 250 µM
IC50 [1]: > 250 µM
growth inhibition (GI) (A549 [8]): inactive
growth inhibition (GI) (PC-3 [9]): inactive
growth inhibition (GI) (HL-60 [7]): inactive
growth inhibition (GI) (PANC-1 [10]): inactive
growth inhibition (GI) (MRC5): Not Active

IC50 (DNA topoisomerase 1): > 250 µM
IC50 [1]: > 250 µM
SMILES: C/C=C(/C)C(=O)O[C@H]1[C@H](O)[C@]2(CO)[C@H](O)C[C@]3(C)C(=CC[C@@H]4[C@@]5(C)CC[C@H](O)[C@](C)(CO)[C@@H]5CC[C@]43C)[C@@H]2CC1(C)C
GI50 (A549 [2]): 2.45 µM
GI50 (PC-3 [3]): 2.23 µM
growth inhibition (GI) (HL-60 [7]): inactive
GI50 (PANC-1 [5]): 11.9 µM
GI50 at 48 h [6]: 18.1 µM

IC50 (DNA topoisomerase 1): > 250 µM
IC50 [1]: > 250 µM
SMILES: C/C=C(/C)C(=O)O[C@H]1[C@H](O)C(C)(C)C[C@H]2C3=CC[C@@H]4[C@@]5(C)CC[C@H](O[C@@H]6O[C@H](C(=O)O)[C@@H](O)[C@H](O[C@@H]7OC[C@@H](O)[C@H](O)[C@H]7O)[C@H]6O[C@@H]6O[C@H](CO)[C@@H](O)[C@H](O)[C@H]6O)C(C)(C)[C@@H]5CC[C@@]4(C)[C@]3(C)C[C@@H](O)[C@]21CO [ERYNGIOSIDE F]
growth inhibition (GI) (A549 [8]): inactive
growth inhibition (GI) (PC-3 [9]): inactive
growth inhibition (GI) (HL-60 [7]): inactive
growth inhibition (GI) (PANC-1 [10]): inactive
growth inhibition (GI) (MRC5): Not Active

SMILES: C[C@@H]1O[C@H](O[C@@H]2[C@@H](O)[C@H](O[C@H]3CC[C@]4(C)[C@H]5CC=C6[C@@H]7CC(C)(C)CC[C@]7(C(=O)O[C@@H]7O[C@H](CO)[C@@H](O)[C@H](O)[C@H]7O)CC[C@@]6(C)[C@]5(C)CC[C@H]4C3(C)C)O[C@H](C(=O)O)[C@H]2O)[C@H](O)[C@H](O)[C@H]1O
growth inhibition (GI) (A549 [8]): inactive
growth inhibition (GI) (PC-3 [9]): inactive
growth inhibition (GI) (HL-60 [7]): inactive
growth inhibition (GI) (PANC-1 [10]): inactive
growth inhibition (GI) (MRC5): Not Active

IC50 (DNA topoisomerase 1): > 250 µM
IC50 [1]: > 250 µM
SMILES: C/C=C(\C)C(=O)O[C@H]1[C@H](OC(C)=O)[C@]2(CO)[C@H](O)C[C@]3(C)C(=CC[C@@H]4[C@@]5(C)CC[C@H](O[C@@H]6O[C@H](C(=O)O)[C@@H](O)[C@H](O[C@@H]7O[C@@H](CO)[C@H](O)[C@H]7O)[C@H]6O[C@@H]6O[C@H](CO)[C@H](O)[C@H](O)[C@H]6O)C(C)(C)[C@@H]5CC[C@]43C)[C@@H]2CC1(C)C [AESCULIOSIDE IIJ]
GI50 (A549 [2]): 21.8 µM
GI50 (PC-3 [3]): 13.8 µM
growth inhibition (GI) (HL-60 [7]): inactive
GI50 (PANC-1 [5]): 21.9 µM
GI50 at 48 h [6]: 17.3 µM

SMILES: CC1(C)C[C@H]2C3=CC[C@@H]4[C@@]5(C)CC[C@H](O[C@@H]6O[C@H](C(=O)O)[C@@H](O)[C@H](O[C@@H]7O[C@@H](CO)[C@H](O)[C@H]7O)[C@H]6O)[C@](C)(CO)[C@@H]5CC[C@@]4(C)[C@]3(C)C[C@@H](O)[C@@]2(CO)[C@@H](O)[C@@H]1O [AESCULIOSIDE IE]
growth inhibition (GI) (A549 [8]): inactive
growth inhibition (GI) (PC-3 [9]): inactive
growth inhibition (GI) (HL-60 [7]): inactive
growth inhibition (GI) (PANC-1 [10]): inactive
growth inhibition (GI) (MRC5): Not Active

SMILES: CC1(C)C[C@H]2C3=CC[C@@H]4[C@@]5(C)CC[C@H](O[C@@H]6O[C@H](C(=O)O)[C@@H](O)[C@H](O[C@@H]7O[C@@H](CO)[C@H](O)[C@H]7O)[C@H]6O[C@@H]6O[C@H](CO)[C@H](O)[C@H](O)[C@H]6O)C(C)(C)[C@@H]5CC[C@@]4(C)[C@]3(C)[C@@H](O)[C@@H](O)[C@@]2(CO)[C@@H](O)[C@@H]1O [AESCULIOSIDE IA]
growth inhibition (GI) (A549 [8]): inactive
growth inhibition (GI) (PC-3 [9]): inactive
growth inhibition (GI) (HL-60 [7]): inactive
growth inhibition (GI) (PANC-1 [10]): inactive
growth inhibition (GI) (MRC5): Not Active

SMILES: C[C@@H]1[C@@H](O)[C@H](O)[C@@H](O[C@H]2CC(C)(C)C[C@H]3C4=CC[C@@H]5[C@@]6(C)CC[C@H](O[C@@H]7O[C@H](CO)[C@@H](O)[C@H](O)[C@H]7O[C@@H]7O[C@H](CO)[C@@H](O)[C@H](O)[C@H]7O[C@@H]7O[C@H](CO)[C@@H](O)[C@H](O)[C@H]7O)C(C)(C)[C@@H]6CC[C@@]5(C)[C@]4(C)C[C@@H](O)[C@@]23CO)O[C@H]1CO [ERYNGIOSIDE A]
growth inhibition (GI) (A549 [8]): inactive
growth inhibition (GI) (PC-3 [9]): inactive
growth inhibition (GI) (HL-60 [7]): inactive
growth inhibition (GI) (PANC-1 [10]): inactive
growth inhibition (GI) (MRC5): Not Active

SMILES: C[C@@H]1[C@@H](O)[C@H](O)[C@@H](O[C@H]2CC(C)(C)C[C@H]3C4=CC[C@@H]5[C@@]6(C)CC[C@H](O[C@@H]7O[C@H](CO)[C@@H](O)[C@H](O)[C@H]7O[C@@H]7O[C@H](CO)[C@@H](O)[C@H](O)[C@H]7O[C@@H]7O[C@H](CO)[C@@H](O)[C@H](O)[C@H]7O)C(C)(C)[C@@H]6CC[C@@]5(C)[C@]4(C)CC(=O)[C@@]23CO)O[C@H]1CO [ERYNGIOSIDE C]
growth inhibition (GI) (A549 [8]): inactive
growth inhibition (GI) (PC-3 [9]): inactive
growth inhibition (GI) (HL-60 [7]): inactive
growth inhibition (GI) (PANC-1 [10]): inactive
growth inhibition (GI) (MRC5): Not Active

SMILES: CC1(C)CC[C@]2(C(=O)O[C@@H]3O[C@H](CO)[C@@H](O)[C@H](O)[C@H]3O)CC[C@]3(C)C(=CC[C@@H]4[C@@]5(C)CC[C@H](O[C@@H]6O[C@H](C(=O)O)[C@@H](O)[C@H](O)[C@H]6O)C(C)(C)[C@@H]5CC[C@]43C)[C@@H]2C1 [CHIKUSETSUSAPONIN IVA]
growth inhibition (GI) (A549 [8]): inactive
growth inhibition (GI) (PC-3 [9]): inactive
growth inhibition (GI) (HL-60 [7]): inactive
growth inhibition (GI) (PANC-1 [10]): inactive
growth inhibition (GI) (MRC5): Not Active
